Data from the NIST ThermoML archive (doi:10.1016/j.jct.2004.04.004).
Numbers after ± are expanded uncertainties.

Experiment: xn = mol fraction of the nth substance listed
Conditions: 101.3 kPa, Liquid

Cc1ccc(C)cc1 [1,4-dimethylbenzene] + C[S+](C)[O-]
Conditions | mass density [kg/m3]
293.15 K, x1 = 0.0599 | 1077 ± 0.31
293.15 K, x1 = 0.1284 | 1052.94 ± 0.29
293.15 K, x1 = 0.1944 | 1031.59 ± 0.29
293.15 K, x1 = 0.2783 | 1006.68 ± 0.28
293.15 K, x1 = 0.3589 | 984.83 ± 0.31
293.15 K, x1 = 0.4385 | 965.03 ± 0.34
293.15 K, x1 = 0.5032 | 950.09 ± 0.37
293.15 K, x1 = 0.5539 | 939.03 ± 0.39
293.15 K, x1 = 0.6235 | 924.72 ± 0.42
293.15 K, x1 = 0.7023 | 909.62 ± 0.45
293.15 K, x1 = 0.7635 | 898.63 ± 0.47
293.15 K, x1 = 0.8243 | 888.27 ± 0.49
293.15 K, x1 = 0.8831 | 878.73 ± 0.51
293.15 K, x1 = 0.9327 | 871.04 ± 0.53
303.15 K, x1 = 0.0632 | 1067.37 ± 0.29
303.15 K, x1 = 0.1639 | 1032.58 ± 0.28
303.15 K, x1 = 0.2343 | 1010.65 ± 0.27
303.15 K, x1 = 0.2934 | 993.59 ± 0.29
303.15 K, x1 = 0.3513 | 977.92 ± 0.31
303.15 K, x1 = 0.425 | 959.33 ± 0.34
303.15 K, x1 = 0.4892 | 944.29 ± 0.37
303.15 K, x1 = 0.5633 | 928.09 ± 0.4
303.15 K, x1 = 0.6398 | 912.58 ± 0.43
303.15 K, x1 = 0.7135 | 898.68 ± 0.46
303.15 K, x1 = 0.7624 | 889.95 ± 0.48
303.15 K, x1 = 0.8243 | 879.44 ± 0.5
303.15 K, x1 = 0.8609 | 873.48 ± 0.51
303.15 K, x1 = 0.9244 | 863.55 ± 0.53
313.15 K, x1 = 0.0662 | 1057.67 ± 0.28
313.15 K, x1 = 0.1358 | 1033.11 ± 0.27
313.15 K, x1 = 0.1942 | 1014.07 ± 0.27
313.15 K, x1 = 0.2578 | 994.8 ± 0.27
313.15 K, x1 = 0.3249 | 975.96 ± 0.31
313.15 K, x1 = 0.3895 | 959.1 ± 0.33
313.15 K, x1 = 0.4509 | 944.13 ± 0.36
313.15 K, x1 = 0.5345 | 925.24 ± 0.4
313.15 K, x1 = 0.6106 | 909.4 ± 0.43
313.15 K, x1 = 0.6719 | 897.46 ± 0.45
313.15 K, x1 = 0.754 | 882.52 ± 0.48
313.15 K, x1 = 0.8358 | 868.7 ± 0.51
313.15 K, x1 = 0.9235 | 854.92 ± 0.54
323.15 K, x1 = 0.0573 | 1052.39 ± 0.27
323.15 K, x1 = 0.1537 | 1018.34 ± 0.26
323.15 K, x1 = 0.2359 | 992.38 ± 0.27
323.15 K, x1 = 0.3131 | 970.2 ± 0.31
323.15 K, x1 = 0.383 | 951.75 ± 0.34
323.15 K, x1 = 0.4509 | 935.12 ± 0.37
323.15 K, x1 = 0.5234 | 918.67 ± 0.4
323.15 K, x1 = 0.5902 | 904.55 ± 0.42
323.15 K, x1 = 0.6618 | 890.43 ± 0.45
323.15 K, x1 = 0.7385 | 876.35 ± 0.48
323.15 K, x1 = 0.8123 | 863.72 ± 0.51
323.15 K, x1 = 0.8832 | 852.33 ± 0.53
323.15 K, x1 = 0.9321 | 844.86 ± 0.55
333.15 K, x1 = 0.0529 | 1045.49 ± 0.26
333.15 K, x1 = 0.1248 | 1019.37 ± 0.25
333.15 K, x1 = 0.1944 | 996.31 ± 0.25
333.15 K, x1 = 0.265 | 974.86 ± 0.29
333.15 K, x1 = 0.3398 | 954.01 ± 0.32
333.15 K, x1 = 0.4014 | 938.13 ± 0.35
333.15 K, x1 = 0.4624 | 923.43 ± 0.38
333.15 K, x1 = 0.5137 | 911.8 ± 0.4
333.15 K, x1 = 0.5823 | 897.2 ± 0.43
333.15 K, x1 = 0.6582 | 882.18 ± 0.46
333.15 K, x1 = 0.731 | 868.78 ± 0.48
333.15 K, x1 = 0.8043 | 856.2 ± 0.51
333.15 K, x1 = 0.8638 | 846.57 ± 0.53
333.15 K, x1 = 0.9247 | 837.2 ± 0.55
343.15 K, x1 = 0.0638 | 1032.77 ± 0.25
343.15 K, x1 = 0.1398 | 1005.47 ± 0.24
343.15 K, x1 = 0.2012 | 985.32 ± 0.26
343.15 K, x1 = 0.275 | 963.03 ± 0.3
343.15 K, x1 = 0.351 | 942.07 ± 0.34
343.15 K, x1 = 0.4132 | 926.22 ± 0.36
343.15 K, x1 = 0.4891 | 908.31 ± 0.4
343.15 K, x1 = 0.5409 | 896.9 ± 0.42
343.15 K, x1 = 0.6148 | 881.67 ± 0.45
343.15 K, x1 = 0.6728 | 870.48 ± 0.47
343.15 K, x1 = 0.7322 | 859.68 ± 0.49
343.15 K, x1 = 0.813 | 845.91 ± 0.52
343.15 K, x1 = 0.8732 | 836.29 ± 0.54
343.15 K, x1 = 0.9322 | 827.33 ± 0.56
353.15 K, x1 = 0.0609 | 1025.3 ± 0.24
353.15 K, x1 = 0.1428 | 995.69 ± 0.24
353.15 K, x1 = 0.218 | 971.2 ± 0.28
353.15 K, x1 = 0.2843 | 951.45 ± 0.31
353.15 K, x1 = 0.3598 | 930.79 ± 0.35
353.15 K, x1 = 0.4241 | 914.57 ± 0.38
353.15 K, x1 = 0.481 | 901.17 ± 0.4
353.15 K, x1 = 0.5393 | 888.27 ± 0.43
353.15 K, x1 = 0.6042 | 874.83 ± 0.45
353.15 K, x1 = 0.6629 | 863.42 ± 0.47
353.15 K, x1 = 0.7321 | 850.8 ± 0.5
353.15 K, x1 = 0.7832 | 842 ± 0.52
353.15 K, x1 = 0.833 | 833.83 ± 0.53
353.15 K, x1 = 0.9128 | 821.46 ± 0.56
